By EC50 is commonly meant the concentration needed to bring the measured effect to its halfway point. What is called solubility is how much of the substance goes into solution per volume. By Cmax is commonly meant the maximum level reached in the sampled fluid or tissue. The half-life is the time in which the quantity being followed falls by half. High values mean slow loss, low ones fast loss.

Data set [1] addresses T1, human GLP-1 receptor (hGLP-1 R) (Homo sapiens, UniProt P43220).
T1 construct: expressed in transfected cells
The experiment in a line: cAMP response (HTRF) of HEK-293 cells stably expressing human GLP-1 receptor. The class given is cell-based. Conditions: Table 7; cAMP formation. How it is done:
(§1) cAMP content of cells was determined using a kit from Cisbio Corp. (cat. no. 62AM4PEC) based on HTRF (Homogenous Time Resolved Fluorescence). For preparation, cells were split into T175 culture flasks and grown overnight to near confluency in medium (DMEM/10% FBS). Medium was then removed and cells washed with PBS lacking calcium and magnesium, followed by proteinase treatment with accutase (Sigma-Aldrich cat. no. A6964). Detached cells were washed and resuspended in assay buffer (1×HBSS; 20 mM HEPES, 0.1% BSA, 2 mM IBMX) and cellular density determined. They were then diluted to 400000 cells/ml and 25 μl-aliquots dispensed into the wells of 96-well plates. For measurement, 25 μl of test compound in assay buffer was added to the wells, followed by incubation for 30 minutes at room temperature.

In data set [2] the target is T2, human GIP receptor (hGIP R) (Homo sapiens, UniProt P48546).
T2 construct: expressed in transfected cells
T2 sequence (P48546 22-466): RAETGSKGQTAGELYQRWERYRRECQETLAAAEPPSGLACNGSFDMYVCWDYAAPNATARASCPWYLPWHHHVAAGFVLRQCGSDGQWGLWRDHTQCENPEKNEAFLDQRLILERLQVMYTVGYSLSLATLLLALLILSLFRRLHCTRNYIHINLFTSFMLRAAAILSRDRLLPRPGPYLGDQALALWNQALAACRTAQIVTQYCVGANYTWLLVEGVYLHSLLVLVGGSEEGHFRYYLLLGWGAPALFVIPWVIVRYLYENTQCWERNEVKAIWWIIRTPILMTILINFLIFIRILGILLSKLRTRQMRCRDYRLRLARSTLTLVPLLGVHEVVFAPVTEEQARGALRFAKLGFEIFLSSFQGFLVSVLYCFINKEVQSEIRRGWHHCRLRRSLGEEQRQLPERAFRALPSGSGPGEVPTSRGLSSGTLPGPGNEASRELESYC
The experiment in a line: cAMP response (HTRF) of HEK-293 cells stably expressing human GIP receptor. Format: cell-based. Conditions: Table 7; cAMP formation. The procedure: as §1

Data set [3] addresses T3, human glucagon receptor (hGLUC R) (Homo sapiens, UniProt P47871).
T3 construct: expressed in transfected cells
The data set can be described thus: cAMP response (HTRF) of HEK-293 cells stably expressing human glucagon receptor. Format: cell-based. Conditions: Table 7; cAMP formation. How it is done:
as §1
A general note: TR-FRET usually uses a lanthanide donor and a delayed reading to cut background.

Data set [4] can be described thus: Solubility testing in buffer, HPLC-UV of supernatant. As to conditions: buffer, target concentration 1.0 mg/mL. The class given is physicochemical. How it is done:
(§2) Solubility and chemical stability of peptidic compounds were assessed as described in Methods.

A short description of data set [5]: Chemical stability in solution, 7 days at 25° C., % remaining peptide. Conditions: % remaining peptide after 7 days at 25° C. The class given is physicochemical. How it is done: The chemical stability is expressed as “% remaining peptide”.
as §2

Data set [6] has as its system non-fasted female diabetic dbdb-mice. The experiment in a line: Glucose lowering in non-fasted female diabetic dbdb-mice. The class given is in vivo. As to conditions: 3 μg/kg s.c., at 240 min, kept to 480 min, baseline 20-22 mmol/l. From the text:
Female diabetic dbdb-mice of mean non-fasted glucose value of 20-22 mmol/l and a body weight of 42 g+/−0.6 g (SEM) were used. Mice were individually marked and were adapted to housing conditions for at least one week.
3-5 days prior to study start mice were assigned to groups and cages (4 mice per cage, 8 per group, control group 16) according to their non-fasted glucose values to ensure even distribution of lower and higher values between groups (stratification). On the study day, mice were weighed and dosed (t=0). Immediately prior to compound administration feed was removed while water remained available, and a first blood sample at a tail incision was drawn (baseline). Further blood samples were drawn at the tail incision at 30, 60, 90, 120, 240, 360, and 480 min.
Statistical analyses are performed with Everstat Version 6.0 based on SAS by 2-way-ANOVA on repeated measures, followed by Dunnett's post-hoc test against vehicle-control. Differences are considered statistically significant at the p<0.05 level.

Data set [7] can be described thus: Pharmacokinetic testing in mice, s.c., LC/MS of plasma. Format: in vivo. As to conditions: mouse, sc, 1 mg/kg s.c. How it is done: Mice were dosed 1 mg/kg subcutaneously (s.c.).
Pharmacokinetic profiles were determined as described in Methods.

Where [8] appears, read: pH 4.5, read-out: Solubility (pH 4.5).
The mark [9] stands for this setting: pH 7.4, read-out: Solubility (pH 7.4).

Structures are written as SMILES. Values after ≈ are worked out from the molar mass of the structure shown. Read-outs that look alike come from different tables or passages of the source. *1 amine or outer side, *2 acyl side, *3 side chain or, on linkers, in order; H or OH if unused. Where a SMILES comes first, the peptide text is derived from it. Side-chain parts run from the residue outwards. [ ]: non-standard residue; d: D form. The star is where a group is joined. γGlu = O=C(O)[C@H](CCC(=O)[*:2])N[*:1]; Stearoyl = CCCCCCCCCCCCCCCCCC(=O)*; Palmitoyl = CCCCCCCCCCCCCCCC(=O)*; d(αMeK) = C[C@@](N)(CCCCN)C(=O)O; αMeOrn = C[C@](N)(CCCN)C(=O)O; Aib = CC(C)(N)C(=O)O

T1 sequence (P43220 24-463): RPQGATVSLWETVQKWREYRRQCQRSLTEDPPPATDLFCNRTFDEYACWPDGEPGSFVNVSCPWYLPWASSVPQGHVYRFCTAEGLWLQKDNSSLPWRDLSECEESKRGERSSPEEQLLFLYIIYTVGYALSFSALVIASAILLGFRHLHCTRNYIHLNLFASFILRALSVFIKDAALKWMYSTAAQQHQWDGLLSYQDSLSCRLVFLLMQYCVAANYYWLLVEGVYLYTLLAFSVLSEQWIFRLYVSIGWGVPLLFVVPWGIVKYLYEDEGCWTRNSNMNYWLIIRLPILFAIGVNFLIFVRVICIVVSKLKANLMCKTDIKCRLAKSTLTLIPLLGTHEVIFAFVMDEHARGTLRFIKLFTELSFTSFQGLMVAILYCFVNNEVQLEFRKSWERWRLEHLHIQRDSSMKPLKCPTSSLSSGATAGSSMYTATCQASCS
T3 sequence (P47871 26-477): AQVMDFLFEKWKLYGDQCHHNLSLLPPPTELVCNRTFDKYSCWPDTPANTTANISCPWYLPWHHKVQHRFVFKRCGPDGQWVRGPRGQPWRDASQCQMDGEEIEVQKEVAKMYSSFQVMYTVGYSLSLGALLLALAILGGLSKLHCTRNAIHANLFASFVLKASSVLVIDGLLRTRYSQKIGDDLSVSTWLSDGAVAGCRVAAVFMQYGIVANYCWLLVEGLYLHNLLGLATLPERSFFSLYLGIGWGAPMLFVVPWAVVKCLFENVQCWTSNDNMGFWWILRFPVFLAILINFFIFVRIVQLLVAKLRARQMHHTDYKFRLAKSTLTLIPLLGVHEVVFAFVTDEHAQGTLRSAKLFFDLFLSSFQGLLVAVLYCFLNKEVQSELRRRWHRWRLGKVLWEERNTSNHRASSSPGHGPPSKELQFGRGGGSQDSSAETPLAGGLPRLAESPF

Consider `CCCCCCCCCCCCCCCC(=O)N[C@@H](CCC(=O)NCCCC[C@H](NC(=O)[C@H](CCC(N)=O)NC(=O)[C@@H](NC(=O)[C@H](CO)NC(=O)[C@H](CC(C)C)NC(=O)[C@H](CC(=O)O)NC(=O)[C@H](CO)NC(=O)[C@@H](NC(=O)[C@H](Cc1ccccc1)NC(=O)[C@@H](NC(=O)CNC(=O)[C@H](CCC(=O)O)NC(=O)C(C)(C)NC(=O)[C@@H](N)Cc1ccc(O)cc1)[C@@H](C)O)[C@@H](C)O)[C@@H](C)CC)C(=O)N[C@@H](CCC(=O)O)C(=O)N[C@@H](CCC(=O)O)C(=O)N[C@@H](CCCNC(=N)N)C(=O)N[C@@H](C)C(=O)N[C@@H](C)C(=O)N[C@](C)(CCCCN)C(=O)N[C@@H](CCC(=O)O)C(=O)N[C@@H](Cc1ccccc1)C(=O)N[C@H](C(=O)N[C@@H](CCC(=O)O)C(=O)N[C@@H](Cc1c[nH]c2ccccc12)C(=O)N[C@@H](CC(C)C)C(=O)N[C@@H](CCCCN)C(=O)N[C@@H](CC(N)=O)C(=O)N[C@H](C(=O)NCC(=O)N1CCC[C@H]1C(=O)N[C@@H](CO)C(=O)N[C@@H](CO)C(=O)NCC(=O)N[C@@H](C)C(=O)N1CCC[C@H]1C(=O)N1CCC[C@H]1C(=O)N1CCC[C@H]1C(=O)N[C@@H](CO)C(N)=O)[C@@H](C)O)[C@@H](C)CC)C(=O)O` [SEQ ID NO: 9, Y-Aib-E-G-T-F-T-S-D-L-S-I-Q-K(γE-x53)-E-E-R-A-A-(R)MeLys-E-F-I-E-W-L-K-N-T-G-P-S-S-G-A-P-P-P-S-NH2] (H-Y[Aib]EGTFTSDLSIQK([γGlu-Palmitoyl])EERAA[d(αMeK)]EFIEWLKNTGPSSGAPPPS-NH2), for which the values for the EC50 in data set [1], in data set [2] and in data set [3] were 0.0135 nM, 0.0932 nM and above 1000 nM, respectively.

`CCCCCCCCCCCCCCCCCC(=O)N[C@@H](CCC(=O)NCCCC[C@H](NC(=O)[C@H](CCC(N)=O)NC(=O)[C@H](CCCCN)NC(=O)[C@H](CO)NC(=O)[C@H](CC(C)C)NC(=O)[C@H](CC(=O)O)NC(=O)[C@H](CO)NC(=O)[C@@H](NC(=O)[C@H](Cc1ccccc1)NC(=O)[C@@H](NC(=O)CNC(=O)[C@H](CCC(N)=O)NC(=O)C(C)(C)NC(=O)[C@@H](N)Cc1ccc(O)cc1)[C@@H](C)O)[C@@H](C)O)C(=O)N[C@@H](CC(=O)O)C(=O)N[C@@H](CCC(=O)O)C(=O)N[C@@H](CCC(N)=O)C(=O)N[C@@H](CCCNC(=N)N)C(=O)N[C@@H](C)C(=O)N[C@@](C)(CCCCN)C(=O)N[C@@H](CCC(=O)O)C(=O)N[C@@H](Cc1ccccc1)C(=O)N[C@H](C(=O)N[C@@H](CCC(=O)O)C(=O)N[C@@H](Cc1c[nH]c2ccccc12)C(=O)N[C@@H](CC(C)C)C(=O)N[C@@H](CCCCN)C(=O)N[C@@H](CO)C(=O)NCC(=O)NCC(=O)N1CCC[C@H]1C(=O)N[C@@H](CO)C(=O)N[C@@H](CO)C(=O)NCC(=O)N[C@@H](C)C(=O)N1CCC[C@H]1C(=O)N1CCC[C@H]1C(=O)N1CCC[C@H]1C(=O)N[C@@H](CO)C(N)=O)[C@@H](C)CC)C(=O)O` [SEQ ID NO: 12, Y-Aib-Q-G-T-F-T-S-D-L-S-K-Q-K(γE-x70)-D-E-Q-R-A-(S)MeLys-E-F-I-E-W-L-K-S-G-G-P-S-S-G-A-P-P-P-S-NH2]: the solubility at 2 h in data set [4] (setting [8]) was above 1000 µg/mL; in data set [4] (setting [9]), 983 µg/mL (≈ 211 µM). Moreover, the “Stability (pH 4.5)” value in data set [5] was found to be 98.0%. The “Stability (pH 7.4)” value in data set [5] was determined as 91.0%. For the same compound, the “maximal effect, glucose reduction” value in data set [6] was around 11 mmol/L.

`CCCCCCCCCCCCCCCCCC(=O)N[C@@H](CCC(=O)NCCCC[C@H](NC(=O)[C@H](CCC(N)=O)NC(=O)[C@@H](NC(=O)[C@H](CO)NC(=O)[C@H](CC(C)C)NC(=O)[C@H](CC(=O)O)NC(=O)[C@H](CO)NC(=O)[C@@H](NC(=O)[C@H](Cc1ccccc1)NC(=O)[C@@H](NC(=O)CNC(=O)[C@H](CCC(N)=O)NC(=O)C(C)(C)NC(=O)[C@@H](N)Cc1ccc(O)cc1)[C@@H](C)O)[C@@H](C)O)[C@@H](C)CC)C(=O)N[C@@H](CC(=O)O)C(=O)N[C@@H](CCC(=O)O)C(=O)N[C@@H](CCC(N)=O)C(=O)N[C@@H](CCCNC(=N)N)C(=O)N[C@@H](C)C(=O)N[C@@](C)(CCCN)C(=O)N[C@@H](CCC(=O)O)C(=O)N[C@@H](Cc1ccccc1)C(=O)N[C@H](C(=O)N[C@@H](CCC(=O)O)C(=O)N[C@@H](Cc1c[nH]c2ccccc12)C(=O)N[C@@H](CC(C)C)C(=O)N[C@@H](CCCCN)C(=O)N[C@@H](C)C(=O)NCC(=O)NCC(=O)N1CCC[C@H]1C(=O)N[C@@H](CO)C(=O)N[C@@H](CO)C(=O)NCC(=O)N[C@@H](C)C(=O)N1CCC[C@H]1C(=O)N1CCC[C@H]1C(=O)N1CCC[C@H]1C(=O)N[C@@H](CO)C(N)=O)[C@@H](C)CC)C(=O)O` [SEQ ID NO: 15, Y-Aib-Q-G-T-F-T-S-D-L-S-I-Q-K(γE-x70)-D-E-Q-R-A-(S)MeOrn-E-F-I-E-W-L-K-A-G-G-P-S-S-G-A-P-P-P-S-NH2] (H-Y[Aib]QGTFTSDLSIQK([γGlu-Stearoyl])DEQRA[αMeOrn]EFIEWLKAGGPSSGAPPPS-NH2) gave an EC50 in data set [1] of 0.0161 nM. The compound further displayed an EC50 in data set [2] of 0.0089 nM. In addition, in data set [4] (setting [8]), the solubility at 2 h is above 1000 µg/mL. In addition, in data set [4] (setting [9]), the solubility at 2 h is above 1000 µg/mL. Besides, in data set [5], the “Stability (pH 4.5)” value amounted to 98.0% and the “Stability (pH 7.4)” value was 98.0%. In data set [7], the Cmax is 3740 ng/mL and the half-life is 2.9 h. Further, the “maximal effect, glucose reduction” value in data set [6] was around 12 mmol/L.
